Laboratory results reported in US7629341B2, “Human ADAM-10 inhibitors” (Symphony Evolution, Inc., priority 2003, dated 2009).

Tests used:
MMP-3 (Stromelysin-1) = MMP-3 (Stromelysin-1) (Homo sapiens, UniProt P08254); test: In vitro metalloprotease inhibition, MMP-3; assay type: biochemical
Text: (§1) Blank cells indicate lack of data only.

[1] = biological target: T1, MMP-1 (Fibroblast collagenase) (Homo sapiens, UniProt P03956); test: In vitro metalloprotease inhibition, MMP-1; assay type: biochemical
T1 sequence (P03956 100-469): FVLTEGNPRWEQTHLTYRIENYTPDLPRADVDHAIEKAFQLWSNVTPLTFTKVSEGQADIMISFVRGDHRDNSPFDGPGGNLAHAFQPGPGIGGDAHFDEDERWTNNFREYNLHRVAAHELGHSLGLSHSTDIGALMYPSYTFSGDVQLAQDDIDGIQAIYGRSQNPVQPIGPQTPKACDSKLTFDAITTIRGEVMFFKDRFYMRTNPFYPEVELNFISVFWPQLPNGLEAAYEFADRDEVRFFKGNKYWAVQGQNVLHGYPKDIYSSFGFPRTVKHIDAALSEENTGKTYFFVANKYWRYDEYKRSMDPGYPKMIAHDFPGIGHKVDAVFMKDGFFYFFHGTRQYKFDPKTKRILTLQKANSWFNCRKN
Text: as §1

MMP-13 (collagenase-3) = MMP-13 (collagenase-3) (Homo sapiens, UniProt P45452); test: In vitro metalloprotease inhibition, MMP-13; assay type: biochemical
[2] = biological target: T2, MMP-2 (72 kDa gelatinase, gelatinase A) (Homo sapiens, UniProt P08253); test: In vitro metalloprotease inhibition, MMP-2; assay type: biochemical
T2 sequence (P08253 110-660): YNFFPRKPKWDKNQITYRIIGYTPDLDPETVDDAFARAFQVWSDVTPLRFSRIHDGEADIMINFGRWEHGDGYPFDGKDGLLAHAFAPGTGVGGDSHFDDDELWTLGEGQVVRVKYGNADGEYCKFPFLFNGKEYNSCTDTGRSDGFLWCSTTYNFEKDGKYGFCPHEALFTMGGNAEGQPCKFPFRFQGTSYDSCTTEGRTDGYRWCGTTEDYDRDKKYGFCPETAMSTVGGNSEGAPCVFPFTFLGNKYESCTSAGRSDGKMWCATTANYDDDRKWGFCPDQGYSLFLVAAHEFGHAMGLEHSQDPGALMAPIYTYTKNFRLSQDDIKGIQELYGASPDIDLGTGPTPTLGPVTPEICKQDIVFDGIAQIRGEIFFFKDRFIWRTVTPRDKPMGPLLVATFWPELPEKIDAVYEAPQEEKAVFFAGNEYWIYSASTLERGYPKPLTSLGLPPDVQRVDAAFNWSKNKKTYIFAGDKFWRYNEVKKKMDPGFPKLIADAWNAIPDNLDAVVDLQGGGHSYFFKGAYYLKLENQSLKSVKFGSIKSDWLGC

ADAM-10 = biological target: T3, ADAM-10 (UniProt O14672); test: ADAM-10 enzyme assay, cleavage of a fluorogenic 10-residue peptide; assay type: biochemical, mouse or human (mADAM-10 or hADAM-10); details: in vitro;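 further: mouse or human ADAM-10 at 5 nM active enzyme, pH 8.0 HEPES buffer with CaCl2 and NP-40, compounds titrated 100 µM down to 0.5 nM, fluorescence read after 16 h at room temperature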
T3 sequence (O14672 1-748): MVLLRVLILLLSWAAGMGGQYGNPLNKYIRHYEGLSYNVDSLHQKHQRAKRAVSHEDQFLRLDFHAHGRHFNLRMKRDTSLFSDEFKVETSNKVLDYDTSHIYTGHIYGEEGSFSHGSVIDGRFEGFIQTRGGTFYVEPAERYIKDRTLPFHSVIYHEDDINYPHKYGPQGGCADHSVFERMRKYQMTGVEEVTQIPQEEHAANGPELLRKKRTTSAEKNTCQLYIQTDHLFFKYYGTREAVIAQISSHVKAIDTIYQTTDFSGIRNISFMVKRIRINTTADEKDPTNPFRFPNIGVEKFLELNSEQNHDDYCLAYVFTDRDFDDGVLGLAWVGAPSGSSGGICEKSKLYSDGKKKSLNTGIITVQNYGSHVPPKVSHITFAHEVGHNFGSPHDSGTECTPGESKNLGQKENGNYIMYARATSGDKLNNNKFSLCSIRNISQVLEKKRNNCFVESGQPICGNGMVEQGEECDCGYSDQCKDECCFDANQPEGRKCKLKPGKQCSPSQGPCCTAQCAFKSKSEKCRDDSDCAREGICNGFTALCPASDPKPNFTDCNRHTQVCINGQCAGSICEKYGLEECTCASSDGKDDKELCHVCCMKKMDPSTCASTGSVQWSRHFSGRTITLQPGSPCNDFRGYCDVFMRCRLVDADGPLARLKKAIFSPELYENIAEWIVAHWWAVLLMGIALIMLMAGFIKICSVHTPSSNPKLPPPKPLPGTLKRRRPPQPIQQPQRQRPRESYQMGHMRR

Chain of MMP-3 (Stromelysin-1) (P08254 100-477, species assumed): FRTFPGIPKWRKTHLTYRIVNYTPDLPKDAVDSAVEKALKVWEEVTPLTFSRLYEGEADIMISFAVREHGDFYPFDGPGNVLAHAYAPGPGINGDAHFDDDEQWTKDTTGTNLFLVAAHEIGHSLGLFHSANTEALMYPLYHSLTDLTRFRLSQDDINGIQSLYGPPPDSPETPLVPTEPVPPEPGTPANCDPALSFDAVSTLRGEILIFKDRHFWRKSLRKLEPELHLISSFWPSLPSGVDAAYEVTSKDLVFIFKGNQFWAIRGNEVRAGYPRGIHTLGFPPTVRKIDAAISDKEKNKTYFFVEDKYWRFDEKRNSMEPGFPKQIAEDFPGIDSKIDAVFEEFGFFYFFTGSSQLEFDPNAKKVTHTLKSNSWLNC

Structure (SMILES) | IC50 (MMP-3 (Stromelysin-1)) [µM] | IC50 [1] [µM] | IC50 (MMP-13 (collagenase-3)) [µM] | IC50 [2] [µM] | IC50 (ADAM-10) [µM]
CN1CCN(S(=O)(=O)c2cc(F)c(Oc3ccc(F)cc3)c(F)c2)[C@@H](C(=O)NO)C1 [Entry 14] | > 20 | > 20 | < 0.05 | < 0.05 | 0.05 to 1
COCCN1CCN(S(=O)(=O)c2cc(F)c(Oc3ccc(Cl)cc3)c(F)c2)[C@@H](C(=O)NO)C1 [Entry 29] | 0.05 to 1 | 1 to 20 | < 0.05 | < 0.05 | < 0.05
CCCCCCC(=O)N1CCN(S(=O)(=O)c2cc(F)c(Oc3ccc(Cl)cc3)c(F)c2)[C@@H](C(=O)NO)C1 [Entry 43] | 0.05 to 1 | > 20 | < 0.05 | < 0.05 | < 0.05
O=C(NO)[C@H]1CN(C(=O)OCc2ccccc2)CCN1S(=O)(=O)c1cc(F)c(Oc2ccc(Cl)cc2)c(F)c1 [Entry 32] | 0.05 to 1 | 1 to 20 | < 0.05 | < 0.05 | < 0.05
COCCOC(=O)N1CCN(S(=O)(=O)c2cc(F)c(Oc3ccccc3)c(F)c2)[C@@H](C(=O)NO)C1 [Entry 40] | 0.05 to 1 | 1 to 20 | < 0.05 | < 0.05 | < 0.05
O=C(NO)[C@H]1CN(C(=O)Cc2cccnc2)CCN1S(=O)(=O)c1cc(F)c(Oc2ccc(Cl)cc2)c(F)c1 [Entry 47] | 0.05 to 1 | > 20 | < 0.05 | < 0.05 | < 0.05
CN(C)C(=O)CN1CCN(S(=O)(=O)c2cc(F)c(Oc3ccc(Cl)cc3)c(F)c2)[C@@H](C(=O)NO)C1 [Entry 20] | 1 to 20 | > 20 | < 0.05 | < 0.05 | < 0.05
CCOC(=O)N1CCN(CCS(=O)(=O)N2CCN(S(=O)(=O)c3cc(F)c(Oc4ccc(Cl)cc4)c(F)c3)[C@@H](C(=O)NO)C2)CC1 [Entry 56] | 0.05 to 1 | 1 to 20 | < 0.05 | < 0.05 | < 0.05
COCCOC(=O)N1CCN(S(=O)(=O)c2ccc(-c3cccc(F)c3)nc2)[C@@H](C(=O)NO)C1 [Entry 66] | < 0.05 | 0.05 to 1 | < 0.05 | < 0.05 | < 0.05
O=C(CN1CCOCC1)NC(=O)N1CCN(S(=O)(=O)c2cc(F)c(Oc3ccc(Cl)cc3)c(F)c2)[C@@H](C(=O)NO)C1 [Entry 46] | 0.05 to 1 | 1 to 20 | < 0.05 | < 0.05 | < 0.05
O=C(NO)[C@H]1CN(C(=O)N2CCOCC2)CCN1S(=O)(=O)c1ccc(Oc2ccc(Cl)cc2)c(F)c1 [Entry 6] | < 0.05 | 0.05 to 1 | < 0.05 | < 0.05 | < 0.05
O=C(O)CN1CCN(S(=O)(=O)c2cc(F)c(Oc3ccc(Cl)cc3)c(F)c2)[C@@H](C(=O)NO)C1 [Entry 63] | 1 to 20 | > 20 | 0.05 to 1 | 0.05 to 1 | 0.05 to 1
O=C(NO)[C@H]1CN(C(=O)N2CCOCC2)CCN1S(=O)(=O)c1ccc(-c2cccc(F)c2)nc1 [Entry 58] | 0.05 to 1 | 0.05 to 1 | < 0.05 | < 0.05 | < 0.05
CN(C)c1cccc2c(S(=O)(=O)N3CCN(S(=O)(=O)c4cc(F)c(Oc5ccc(Cl)cc5)c(F)c4)[C@@H](C(=O)NO)C3)cccc12 [Entry 60] | 1 to 20 | > 20 | < 0.05 | < 0.05 | 0.05 to 1
O=C(NO)[C@H]1CN(S(=O)(=O)Cc2cc(Cl)cc(Cl)c2)CCN1S(=O)(=O)c1cc(F)c(Oc2ccc(Cl)cc2)c(F)c1 [Entry 61] | > 20 | > 20 | 1 to 20 | 1 to 20 | 0.05 to 1
O=C(NO)[C@H]1CNCCN1S(=O)(=O)c1cc(F)c(Oc2ccc(F)cc2)c(F)c1 [Entry 11] | 1 to 20 | > 20 | > 20 | 0.05 to 1 | 0.05 to 1
O=C(NO)[C@H]1CN(S(=O)(=O)c2cccc3cnccc23)CCN1S(=O)(=O)c1cc(F)c(Oc2ccc(Cl)cc2)c(F)c1 [Entry 48] | 0.05 to 1 | > 20 | < 0.05 | < 0.05 | < 0.05
COCCOC(=O)N1CCN(S(=O)(=O)c2ccc(Oc3ccc4c(c3)CCCC4)nc2)[C@@H](C(=O)NO)C1 [Entry 64] | < 0.05 | 0.05 to 1 | < 0.05 | < 0.05 | < 0.05
COCCOC(=O)N1CCN(S(=O)(=O)c2cc(F)c(Oc3ccc(F)cc3)c(F)c2)[C@@H](C(=O)NO)C1 [Entry 10] | 1 to 20 | 1 to 20 | < 0.05 | < 0.05 | < 0.05
O=C(NO)[C@H]1CN(CC(=O)N2CCCC2)CCN1S(=O)(=O)c1cc(F)c(Oc2ccc(Cl)cc2)c(F)c1 [Entry 21] | 1 to 20 | > 20 | 0.05 to 1 | < 0.05 | < 0.05
COCCOC(=O)N1CCN(S(=O)(=O)c2ccc(Oc3ccc(C#N)cc3)c(F)c2)[C@@H](C(=O)NO)C1 [Entry 5] | 0.05 to 1 | 0.05 to 1 | < 0.05 | < 0.05 | < 0.05
CN1CCN(CCS(=O)(=O)N2CCN(S(=O)(=O)c3cc(F)c(Oc4ccc(Cl)cc4)c(F)c3)[C@@H](C(=O)NO)C2)CC1 [Entry 55] | 0.05 to 1 | 1 to 20 | < 0.05 | < 0.05 | < 0.05
CN(C)c1ccc2c(S(=O)(=O)N3CCN(S(=O)(=O)c4cc(F)c(Oc5ccc(Cl)cc5)c(F)c4)[C@@H](C(=O)NO)C3)cccc2c1 [Entry 49] | 0.05 to 1 | > 20 | < 0.05 | < 0.05 | 1 to 20
CN1CCN(C(=O)NS(=O)(=O)N2CCN(S(=O)(=O)c3cc(F)c(Oc4ccc(Cl)cc4)c(F)c3)[C@@H](C(=O)NO)C2)CC1 [Entry 39] | < 0.05 | 0.05 to 1 | < 0.05 | < 0.05 | < 0.05
CCCC(CCC)C(=O)N1CCN(S(=O)(=O)c2cc(F)c(Oc3ccc(Cl)cc3)c(F)c2)[C@@H](C(=O)NO)C1 [Entry 44] | 1 to 20 | > 20 | 0.05 to 1 | < 0.05 | < 0.05
CCOC(=O)N1CCN(CC(=O)N2CCN(S(=O)(=O)c3cc(F)c(Oc4ccc(Cl)cc4)c(F)c3)[C@@H](C(=O)NO)C2)CC1 [Entry 23] | 1 to 20 | > 20 | < 0.05 | < 0.05 | < 0.05
O=C(NO)[C@H]1CN(C(=O)NCCN2CCCC2)CCN1S(=O)(=O)c1cc(F)c(Oc2ccc(Cl)cc2)c(F)c1 [Entry 17] | 0.05 to 1 | 1 to 20 | < 0.05 | < 0.05 | < 0.05
O=C(CCl)NC(=O)N1CCN(S(=O)(=O)c2cc(F)c(Oc3ccc(Cl)cc3)c(F)c2)[C@@H](C(=O)NO)C1 [Entry 33] | 0.05 to 1 | 1 to 20 | < 0.05 | < 0.05 | < 0.05
